Results published in publication PMC6102643, “Different Benzodiazepines Bind with Distinct Binding Modes to GABAA Receptors” (ACS Chemical Biology, 2018).

Legend:
[1] = biological target: T1, α2β3γ2-GABAA receptors (Rattus norvegicus, UniProt P18508+P23576); test: Two-electrode voltage clamp recordings, α2β3γ2 in Xenopus laevis oocytes; assay type: cell-based; conditions: GABA eliciting 3% of maximum current; for activity in the oocyte assay at drug concentrations of ≤1 μM: drug ≤1 μM
T1 construct: expressed in transfected cells; host or cells: Xenopus laevis oocytes (mRNA injected)
T1 sequence (P23576 29-451): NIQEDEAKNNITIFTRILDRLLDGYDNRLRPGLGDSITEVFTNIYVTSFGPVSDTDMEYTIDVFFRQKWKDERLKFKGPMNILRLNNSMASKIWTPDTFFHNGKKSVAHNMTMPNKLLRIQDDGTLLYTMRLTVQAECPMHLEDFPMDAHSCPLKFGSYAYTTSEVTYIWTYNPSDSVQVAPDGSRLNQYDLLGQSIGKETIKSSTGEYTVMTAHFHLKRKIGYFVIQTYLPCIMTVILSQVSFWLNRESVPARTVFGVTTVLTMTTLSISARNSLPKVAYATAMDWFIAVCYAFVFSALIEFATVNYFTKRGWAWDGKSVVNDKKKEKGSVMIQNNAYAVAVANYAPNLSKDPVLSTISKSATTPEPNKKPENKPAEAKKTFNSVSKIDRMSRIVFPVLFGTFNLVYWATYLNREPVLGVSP
T1 sequence (P63079 26-473 partner): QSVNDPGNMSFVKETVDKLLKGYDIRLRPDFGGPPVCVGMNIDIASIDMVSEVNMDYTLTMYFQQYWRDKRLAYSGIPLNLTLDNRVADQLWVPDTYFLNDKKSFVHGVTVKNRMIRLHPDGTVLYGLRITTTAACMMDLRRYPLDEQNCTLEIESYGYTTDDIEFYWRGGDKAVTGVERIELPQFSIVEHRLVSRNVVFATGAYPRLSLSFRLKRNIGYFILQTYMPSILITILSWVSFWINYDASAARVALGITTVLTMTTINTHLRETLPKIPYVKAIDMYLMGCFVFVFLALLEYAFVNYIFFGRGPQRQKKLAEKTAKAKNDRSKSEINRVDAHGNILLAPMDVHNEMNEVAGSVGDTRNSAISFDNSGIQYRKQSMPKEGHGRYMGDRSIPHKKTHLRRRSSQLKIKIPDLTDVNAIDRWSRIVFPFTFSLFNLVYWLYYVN
T1 sequence (P18508 39-466): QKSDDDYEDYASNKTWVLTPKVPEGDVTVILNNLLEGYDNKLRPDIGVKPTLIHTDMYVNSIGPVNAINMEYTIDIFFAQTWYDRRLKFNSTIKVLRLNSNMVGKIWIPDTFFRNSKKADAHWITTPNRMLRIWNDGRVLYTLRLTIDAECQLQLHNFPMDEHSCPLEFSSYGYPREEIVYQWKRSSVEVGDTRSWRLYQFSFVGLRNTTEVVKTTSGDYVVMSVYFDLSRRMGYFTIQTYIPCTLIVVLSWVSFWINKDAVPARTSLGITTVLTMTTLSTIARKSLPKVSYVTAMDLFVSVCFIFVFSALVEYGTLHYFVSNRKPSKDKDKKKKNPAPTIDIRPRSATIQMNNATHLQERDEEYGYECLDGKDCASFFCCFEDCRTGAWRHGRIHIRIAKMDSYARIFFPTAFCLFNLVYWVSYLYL
Source text: Radioligand displacement assays provide information about the binding of a compound to only a specific binding site. To exclude the possibility that compounds 2-R and 3-R bind at a site different from the [^3H]flunitrazepam binding site (and are therefore unable to compete with the radioligand), we decided to determine the efficacies of all our test compounds using two-electrode voltage clamp recordings on α2β3γ2-mRNA-treated Xenopus laevis oocytes (see Figure 5).
Figure 5 Concentration–response curves of drug-induced enhancement of GABA currents. X. laevis oocytes were treated with mRNA for α2β3γ2-GABAA receptors and studied using two-electrode voltage clamp recordings. GABA-induced currents (3% of maximum) were modulated by addition of drug. Data are means ± the standard error of the mean of three independent experiments.
(§1) Radioligand displacement assays were performed in HEK-293 cells transfected with recombinant rat αxβ3γ2 receptors (x = 1, 2, 3, or 5) using 2 nM [^3H]flunitrazepam and 1 nM to 10 μM investigated compound as described previously.[20] Two-electrode voltage clamp recordings were performed on X. laevis oocytes treated with mRNA for the desired subunit combination at a GABA concentration eliciting 3% of the maximum current.[21]

[2] = biological target: T2, recombinant rat GABAA receptor α3β3γ2 (Rattus norvegicus, UniProt P18508+P20236); test: [3H]flunitrazepam radioligand displacement, α3β3γ2; assay type: binding
T2 construct: expressed in transfected cells; host or cells: HEK-293
T2 sequence (P20236 29-493): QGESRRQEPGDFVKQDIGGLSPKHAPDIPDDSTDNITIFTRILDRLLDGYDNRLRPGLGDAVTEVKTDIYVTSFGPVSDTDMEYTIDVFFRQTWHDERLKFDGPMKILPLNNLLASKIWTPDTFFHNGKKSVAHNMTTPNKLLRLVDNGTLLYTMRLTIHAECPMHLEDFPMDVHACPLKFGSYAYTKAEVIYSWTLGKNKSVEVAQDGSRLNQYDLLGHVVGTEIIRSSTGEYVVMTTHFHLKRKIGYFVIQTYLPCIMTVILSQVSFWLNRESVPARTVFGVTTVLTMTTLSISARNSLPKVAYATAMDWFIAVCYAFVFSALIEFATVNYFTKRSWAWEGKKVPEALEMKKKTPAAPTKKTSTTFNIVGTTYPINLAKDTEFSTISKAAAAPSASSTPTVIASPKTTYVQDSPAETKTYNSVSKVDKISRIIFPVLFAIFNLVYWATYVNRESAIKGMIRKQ
T2 sequence (P63079 26-473 partner): as the sequence (P63079 26-473 partner) above
T2 sequence (P18508 39-466): as the sequence (P18508 39-466) above
Procedure: (§2) To exclude a binding behavior unique to α2-containing receptors, we also performed similar radioligand displacement studies on other receptor combinations such as recombinantly expressed rat GABAA receptor subtypes α1β3γ2, α3β3γ2, and α5β3γ2 (see Figure S2).
as §1
(§3) Inhibition of [3H]flunitrazepam binding to recombinant α1β3γ2, α2β3γ2, α3β3γ2, α5β3γ2 GABA A
(§4) receptors subtypes. Membranes from HEK 293 cells transfected with GABAA receptor
(§5) subunit combination, (α1β3γ2, α2β3γ2, α3β3γ2, α5β3γ2) were incubated with 2 nM
(§6) [3H]flunitrazepam in the presence of various concentrations of GABAA -R ligands investigated.
(§7) Data shown represent mean ± SEM of three experiments performed in duplicates each. […]

[3] = biological target: T3, recombinant rat GABAA receptor α1β3γ2 (Rattus norvegicus, UniProt P18508+P62813); test: [3H]flunitrazepam radioligand displacement, α1β3γ2; assay type: binding
T3 construct: expressed in transfected cells; host or cells: HEK-293
T3 sequence (P62813 28-455): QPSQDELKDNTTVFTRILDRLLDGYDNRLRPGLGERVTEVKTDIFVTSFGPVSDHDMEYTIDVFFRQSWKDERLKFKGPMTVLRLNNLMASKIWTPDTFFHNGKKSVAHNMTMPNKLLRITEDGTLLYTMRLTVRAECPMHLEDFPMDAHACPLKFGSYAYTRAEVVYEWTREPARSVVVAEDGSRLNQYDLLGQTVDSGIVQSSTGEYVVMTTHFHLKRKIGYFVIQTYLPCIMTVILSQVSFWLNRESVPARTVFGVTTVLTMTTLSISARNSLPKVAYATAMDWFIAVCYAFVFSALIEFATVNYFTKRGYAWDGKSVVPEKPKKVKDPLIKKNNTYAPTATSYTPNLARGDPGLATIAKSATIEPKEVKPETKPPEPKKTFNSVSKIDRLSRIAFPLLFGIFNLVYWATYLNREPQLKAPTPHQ
T3 sequence (P63079 26-473 partner): as the sequence (P63079 26-473 partner) above
T3 sequence (P18508 39-466): as the sequence (P18508 39-466) above
Procedure: as §2, §1, §3, §4, §5, §6, §7

[4] = tested on: α1β3γ2, α3β3γ2, and α5β3γ2 GABAA receptors; test: Two-electrode voltage clamp recordings, other receptor combinations in oocytes; assay type: cell-based; conditions: α1β3γ2, α3β3γ2, α5β3γ2 (and α2β3γ2); Figure S3
Procedure: In addition to the analysis of α2β3γ2-containing GABAA receptors, we also performed similar electrophysiological studies of other receptor combinations such as α1β3γ2, α3β3γ2, and α5β3γ2 (see Figure S3).
as §1

[5] = biological target: T4, recombinant rat GABAA receptor α2β3γ2 (Rattus norvegicus, UniProt P18508+P23576); test: [3H]flunitrazepam radioligand displacement, α2β3γ2; assay type: binding; conditions: for displacement of [3H]flunitrazepam at α2β3γ2 (in words): 2 nM [3H]flunitrazepam, HEK-293 membranes
T4 construct: expressed in transfected cells; host or cells: HEK-293
T4 sequence (P23576 29-451): as the sequence (P23576 29-451) above
T4 sequence (P63079 26-473 partner): as the sequence (P63079 26-473 partner) above
T4 sequence (P18508 39-466): as the sequence (P18508 39-466) above
Procedure: To test our predictions, we performed radioligand displacement studies and compared the potencies of our six chiral benzodiazepine ligands for the inhibition of binding of [^3H]flunitrazepam to α2β3γ2 recombinant rat GABAA receptor subtypes (see Figure 4).
Figure 4 Inhibition of binding of [^3H]flunitrazepam to recombinant α2β3γ2 GABAA receptor subtypes. Membranes from HEK-293 cells transfected with the GABAA receptor subunit combination α2β3γ2 were incubated with 2 nM [^3H]flunitrazepam in the presence of various concentrations of the six BZ site ligands. Data shown are the means ± the standard error of the mean of three independent experiments each performed in duplicate.
as §1, §3, §4, §5, §6, §7

[6] = tested on: recombinant rat αxβ3γ2 receptors (x = 1, 2, 3, or 5); test: [3H]flunitrazepam radioligand displacement, all receptor subtypes tested; assay type: binding; conditions: for displacement of [3H]flunitrazepam in all receptor subtypes (in words): α1β3γ2, α2β3γ2, α3β3γ2, α5β3γ2, even at high micromolar concentrations for non-binders; for subtype selectivity of binding (in words): across α1, α2, α3, α5 subtypes
Procedure: as §2
However, we did observe differences in the potency rank order.
as §1

[7] = biological target: T5, recombinant rat GABAA receptor α5β3γ2 (Rattus norvegicus, UniProt P18508+P19969); test: [3H]flunitrazepam radioligand displacement, α5β3γ2; assay type: binding; conditions: for preference / selectivity for α5-containing receptors: binding affinity at α5 versus other receptor subtypes
T5 construct: expressed in transfected cells; host or cells: HEK-293
T5 sequence (P19969 32-464 limits assumed): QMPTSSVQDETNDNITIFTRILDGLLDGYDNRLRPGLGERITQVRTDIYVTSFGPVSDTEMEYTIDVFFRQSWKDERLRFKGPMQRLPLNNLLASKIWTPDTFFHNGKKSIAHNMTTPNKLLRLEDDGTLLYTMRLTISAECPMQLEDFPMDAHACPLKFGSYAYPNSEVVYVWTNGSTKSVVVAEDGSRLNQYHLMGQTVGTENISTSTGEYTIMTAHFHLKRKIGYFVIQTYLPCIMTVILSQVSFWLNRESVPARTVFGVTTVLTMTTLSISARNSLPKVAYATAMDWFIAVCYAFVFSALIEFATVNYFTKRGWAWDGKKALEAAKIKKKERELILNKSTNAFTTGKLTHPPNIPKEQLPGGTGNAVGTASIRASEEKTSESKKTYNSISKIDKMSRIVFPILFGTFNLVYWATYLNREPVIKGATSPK
T5 sequence (P63079 26-473 partner): as the sequence (P63079 26-473 partner) above
T5 sequence (P18508 39-466): as the sequence (P18508 39-466) above
Procedure: as §2, §1, §3, §4, §5, §6, §7

[8] = tested on: GABAA receptors; design: method as in PMID 17392731, PMID 20727364; conditions: cited from earlier work
[9] = tested on: α1-, α3-, and α5-containing GABAA receptors; design: method as in PMID 20727364; conditions: versus SH-053-2′F-S-CH3; cited from earlier work
[10] = tested on: α2-containing GABAA receptors; design: method as in PMID 20727364; conditions: versus SH-053-2′F-S-CH3; cited from earlier work

Row | Structure (SMILES) | activity in the oocyte assay at drug concentrations of ≤1 μM [1] | Ki [2] [µM] | Ki [3] [µM] | modulation of GABA currents in all receptor subtypes (in words) [4] | Ki [5] [µM] | displacement of [3H]flunitrazepam at α2β3γ2 (in words) [5] | displacement of [3H]flunitrazepam in all receptor subtypes (in words) [6] | Ki [7] [µM] | binding to GABAA receptors (in words) [8] | lower affinity compared to the S isomer, α1-, α3-, and α5-containing receptors [9] | lower affinity compared to the S isomer, α2-containing receptors [10] [fold] | modulation of GABA-induced currents at 10 μM ([1]; drug 10 μM) | modulation of GABA-induced chloride ion flux (in words) [1] | preference / selectivity for α5-containing receptors [7] [fold] | subtype selectivity of binding (in words) [6]
1 | C[C@H]1N=C(c2ccccc2)c2cc(Br)ccc2NC1=O [compound 3-R] | complete loss of activity | > 10 | > 10 | mainly modulatory silent | > 10 | inactive | failed to displace | > 10 | – | – | – | – | – | – | –
2 | C#Cc1ccc2c(c1)C(c1ccccc1F)=N[C@H](C)c1c(C(=O)OCC)ncn1-2 [SH-053-2′F-R-CH3] | – | – | – | – | – | – | – | – | high affinity | 3–5 fold | 30 | – | – | – | –
3 | C#Cc1ccc2c(c1)C(c1ccccc1)=N[C@H](C)c1nnc(C)n1-2 [compound 2-R] | complete loss of activity | > 10 | > 10 | mainly modulatory silent | > 10 | inactive | failed to displace | > 10 | – | – | – | slight positive modulation | – | – | –
4 | CCOC(=O)c1ncn2c1[C@H](C)N=C(c1ccccc1F)c1cc(Br)ccc1-2 [compound 1-S] | – | 0.136 ± 0.024 | 0.19 ± 0.055 | positive modulation | 0.067 ± 0.009 | intermediate to high binding affinities | potently replaced | 0.017 ± 0.005 | – | – | – | – | positive allosteric modulators | > 4 | –
5 | C#Cc1ccc2c(c1)C(c1ccccc1F)=N[C@@H](C)c1c(C(=O)OCC)ncn1-2 [SH-053-2′F-S-CH3] | – | – | – | – | – | – | – | – | high affinity | – | – | – | – | – | –
6 | C#Cc1ccc2c(c1)C(c1ccccc1)=N[C@@H](C)c1nnc(C)n1-2 [compound 2-S] | – | 0.656 ± 0.11 | 0.663 ± 0.021 | positive modulation | 0.164 ± 0.015 | intermediate to high binding affinities | potently replaced | 0.08 ± 0.004 | – | – | – | – | positive allosteric modulators | – | significant higher binding affinities in α2 and α5 GABAAR subtypes than in α1 and α3 subtypes
7 | C[C@@H]1N=C(c2ccccc2)c2cc(Br)ccc2NC1=O [compound 3-S] | – | 0.102 ± 0.007 | 0.064 ± 0.002 | positive modulation | 0.061 ± 0.01 | intermediate to high binding affinities | potently replaced | 0.031 ± 0.005 | – | – | – | – | positive allosteric modulators | – | low subtype selectivity
8 | CCOC(=O)c1ncn2c1[C@@H](C)N=C(c1ccccc1F)c1cc(Br)ccc1-2 [compound 1-R] | – | 0.501 ± 0.079 | 0.273 ± 0.041 | positive modulation | 0.253 ± 0.031 | retained its potential to displace the radioligand | potently replaced | 0.056 ± 0.008 | – | – | – | – | positive allosteric modulators | ~5 | –
